The record followed here is US10392404B2, “Compounds and compositions as kinase inhibitors” (NOVARTIS AG, priority 2014, dated 2019).

Assay [1] addresses T1, b-Raf (V600E) (Homo sapiens, UniProt P15056, V600E).
T1 construct: made in house
Nature of the assay: In vitro Raf activity determination (Alpha Screen, biotinylated kinase-dead MEK1 substrate), B-Raf. Type of assay: biochemical. To be noted: b-Raf (V600E) approximately 4 pM; ATP 10 μM; pre-incubation 60 minutes; reaction 3 hours at room temperature. In a few lines: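 IC50 from non-linear regression of AlphaScreen phospho-MEK signal (anti-p-MEK1/2 antibody). b-Raf(V600E), about 4 pM, phosphorylated ~10 nM biotinylated K97R MEK1 with 10 μM ATP for 3 h at room temperature after 60 min compound pre-incubation; buffer pH 7.5 Tris, 15 mM MgCl2, 1 mM DTT.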

Assay [2] has as its target T2, C-RAF (Homo sapiens, UniProt P04049, Y340E/Y341E).
T2 construct: His tag (implied by nickel chromatography) (cleaved yes); StrepII tag (cleaved yes); made in house; host or cells: Sf9 insect cells (baculovirus), CRAF and h14-3-3 zeta co-expressed; MEK1 substrate from E. coli
Nature of the assay: In vitro Raf activity determination (Alpha Screen, biotinylated kinase-dead MEK1 substrate), C-Raf. Type of assay: biochemical. To be noted: c-Raf approximately 4 nM; ATP 1 μM; pre-incubation 60 minutes; reaction 1 hour at room temperature. In a few lines:
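AlphaScreen read-out of MEK phosphorylation using an anti-phospho-MEK1/2 antibody after a 1 hour room-temperature reaction at 1 μM ATP. Enzyme: approximately 4 nM Sf9-expressed full-length activated C-Raf (Y340E/Y341E, with 14-3-3ζ) on approximately 10 nM biotinylated K97R MEK1, after 60 min compound preincubation. IC50 by non-linear fit.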

T2 sequence (P04049 whole entry Y340E/Y341E): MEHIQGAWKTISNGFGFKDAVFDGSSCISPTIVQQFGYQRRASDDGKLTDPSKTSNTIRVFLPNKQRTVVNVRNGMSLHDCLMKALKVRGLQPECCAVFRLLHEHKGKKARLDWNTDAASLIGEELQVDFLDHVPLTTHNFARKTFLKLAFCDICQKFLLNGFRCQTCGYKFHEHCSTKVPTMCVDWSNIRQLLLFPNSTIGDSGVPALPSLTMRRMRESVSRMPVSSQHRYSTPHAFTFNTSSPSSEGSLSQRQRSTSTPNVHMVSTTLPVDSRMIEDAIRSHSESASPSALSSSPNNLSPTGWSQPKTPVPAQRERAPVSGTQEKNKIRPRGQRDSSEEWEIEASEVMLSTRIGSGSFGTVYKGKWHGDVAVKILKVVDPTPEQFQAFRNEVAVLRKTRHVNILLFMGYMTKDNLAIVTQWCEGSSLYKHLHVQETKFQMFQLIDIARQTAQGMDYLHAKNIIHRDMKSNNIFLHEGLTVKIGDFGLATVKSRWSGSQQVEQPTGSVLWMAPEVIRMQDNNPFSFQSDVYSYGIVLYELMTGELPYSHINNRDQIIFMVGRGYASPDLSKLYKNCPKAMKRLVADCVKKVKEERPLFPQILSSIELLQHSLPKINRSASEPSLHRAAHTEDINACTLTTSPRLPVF
T2 sequence (P63104 whole entry partner): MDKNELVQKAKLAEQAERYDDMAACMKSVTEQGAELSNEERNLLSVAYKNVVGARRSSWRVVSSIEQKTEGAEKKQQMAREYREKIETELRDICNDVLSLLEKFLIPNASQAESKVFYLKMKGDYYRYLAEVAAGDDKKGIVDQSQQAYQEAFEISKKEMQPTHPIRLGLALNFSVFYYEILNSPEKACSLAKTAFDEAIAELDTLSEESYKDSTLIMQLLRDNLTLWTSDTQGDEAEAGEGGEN
T1 sequence (P15056 whole entry V600E): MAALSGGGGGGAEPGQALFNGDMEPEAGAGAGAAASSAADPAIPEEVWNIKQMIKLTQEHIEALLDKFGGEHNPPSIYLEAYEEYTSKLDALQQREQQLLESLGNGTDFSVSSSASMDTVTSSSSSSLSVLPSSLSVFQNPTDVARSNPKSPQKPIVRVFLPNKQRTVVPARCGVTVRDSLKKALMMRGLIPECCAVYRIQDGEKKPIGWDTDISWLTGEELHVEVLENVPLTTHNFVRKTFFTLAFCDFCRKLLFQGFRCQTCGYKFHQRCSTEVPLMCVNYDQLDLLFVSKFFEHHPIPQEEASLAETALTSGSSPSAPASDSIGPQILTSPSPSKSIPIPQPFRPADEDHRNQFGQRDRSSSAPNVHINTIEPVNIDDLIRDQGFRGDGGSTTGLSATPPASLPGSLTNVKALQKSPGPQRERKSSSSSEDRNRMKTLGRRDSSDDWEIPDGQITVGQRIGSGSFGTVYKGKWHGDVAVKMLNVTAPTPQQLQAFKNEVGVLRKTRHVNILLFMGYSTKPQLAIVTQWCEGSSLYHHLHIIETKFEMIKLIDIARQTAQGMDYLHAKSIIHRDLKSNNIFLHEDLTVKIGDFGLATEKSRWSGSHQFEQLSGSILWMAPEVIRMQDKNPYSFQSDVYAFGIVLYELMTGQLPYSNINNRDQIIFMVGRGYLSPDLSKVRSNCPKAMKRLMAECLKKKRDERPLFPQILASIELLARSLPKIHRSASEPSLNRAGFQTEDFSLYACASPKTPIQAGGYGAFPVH

Take `Cc1ccc(NC(=O)c2cc(C(C)(C)F)ccn2)cc1-c1cnc(N2CCOCC2)c(C#N)c1` [Example 245, N-(3-(5-cyano-6-morpholinopyridin-3-yl)-4-methylphenyl)-4-(2-fluoropropan-2-yl)picolinamide]: the half-inhibitory concentration (IC50) (as a rule, the midpoint of a concentration-inhibition curve) in assay [1] worked out at 3.24 nM; in assay [2] it was 0.533 nM.

On to `Cc1ccc(NC(=O)c2cccc(C(F)(F)F)c2)cc1-c1cnc(NC2CC2)c(C#N)c1` [Example 17, N-(3-(5-cyano-6-(cyclopropylamino)pyridin-3-yl)-4-methylphenyl)-3-(trifluoromethyl) benzamide], for which the figures for the IC50 in assay [1] and in assay [2] were 2.28 nM and 0.323 nM, respectively.

Consider `Cc1ncc(NC(=O)c2cc(C(F)(F)F)ccn2)cc1-c1cnc(NC2CCOCC2)c(C#N)c1` [Example 227, N-(5′-cyano-2-methyl-6′-((tetrahydro-2H-pyran-4-yl)amino)-[3,3′-bipyridin]-5-yl)-4-(trifluoromethyl) picolinamide], for which the 50% inhibitory concentration (IC50) in assay [1] came out at 3 nM; in assay [2], 0.796 nM.

Consider `CCn1cc(C(=O)Nc2cnc(C)c(-c3cnc(N4CC(C)(O)C4)c(C#N)c3)c2)cc(C(F)(F)F)c1=O` [Example 191, N-(5′-cyano-6′-(3-hydroxy-3-methylazetidin-1-yl)-2-methyl-[3,3′-bipyridin]-5-yl)-1-ethyl-6-oxo-5-(trifluoromethyl)-1,6-dihydropyridine-3-carboxamide], for which the IC50 in assay [1] came out at 30.6 nM; in assay [2], 5.21 nM.

For `Cc1ncc(NC(=O)c2ccnc(C(C)(C)O)c2)cc1-c1cnc(N2CCOCC2)c(C#N)c1` [Example 166, N-(5′-cyano-2-methyl-6′-morpholino-[3,3′-bipyridin]-5-yl)-2-(2-hydroxypropan-2-yl)isonicotinamide], the figures for the concentration for half-maximal inhibition (IC50) in assay [1] and in assay [2] were 6.91 nM and 1.59 nM, respectively.

`Cc1cn(-c2ncc(-c3cc(NC(=O)c4ccnc(C(C)(C)C#N)c4)cnc3C)cc2C#N)cn1` [Example 84, N-(5′-cyano-2-methyl-6′-(4-methyl-1H-imidazol-1-yl)-[3,3′-bipyridin]-5-yl)-2-(2-cyanopropan-2-yl)isonicotinamide]: the 50% inhibitory concentration (IC50) in assay [1] came out at 25.1 nM; in assay [2] it was 5.1 nM.

For `Cc1ncc(NC(=O)c2ccnc(C(F)(F)F)c2)cc1-c1cnc(-c2ccn(C)c(=O)c2)c(C#N)c1` [Example 102, N-(5′-cyano-1″,2-dimethyl-2″-oxo-1″,2″-dihydro-[3,3′:6′,4″- terpyridin]-5-yl)-2-(trifluoromethyl) isonicotinamide], the IC50 in assay [1] is 3.14 nM; in assay [2], 0.66 nM.

For `Cc1ncc(NC(=O)c2ccnc(C(C)(C)C#N)c2)cc1-c1cnc(N2CCO[C@H](C)C2)c(C#N)c1` [Example 75, (R)-N-(5′-cyano-2-methyl-6′-(2-methylmorpholino)-[3,3′-bipyridin]-5-yl)-2-(2-cyanopropan-2-yl)isonicotinamide], the half-maximal inhibitory concentration (IC50) in assay [1] amounted to 3.79 nM; in assay [2], 1.2 nM.

For `COc1ncc(-c2cc(NC(=O)c3ccnc(C(C)(C)C#N)c3)ccc2C)cc1C#N` [Example 36, N-(3-(5-cyano-6-methoxypyridin-3-yl)-4-methylphenyl)-2-(2-cyanopropan-2-yl)isonicotinamide], the half-inhibitory concentration (IC50) in assay [1] came to 2.76 nM; in assay [2], 0.479 nM.

For `Cc1ncc(NC(=O)c2ccnc(C(C)(C)C#N)c2)cc1-c1cnc(N2CCS(=O)(=O)CC2)c(C#N)c1` [Example 55, N-(5′-cyano-6′-(1,1-dioxidothiomorpho-lino)-2-methyl-[3,3′-bipyridin]-5-yl)-2-(2-cyanopropan-2-yl)isonicotinamide], the IC50 in assay [1] came out at 11.6 nM; in assay [2], 2.36 nM.

Regarding `Cc1ccc(NC(=O)c2cc(C(F)(F)F)ccn2)cc1-c1cnc(NC2CCOCC2)c(C#N)c1` [Example 226, N-(3-(5-cyano-6-((tetrahydro-2H-pyran-4-yl)amino)pyridin-3-yl)-4-methylphenyl)-4-(trifluoromethyl) picolinamide], the 50% inhibitory concentration (IC50) in assay [1] came to 2 nM; in assay [2], 0.695 nM.

Turning to `Cc1ccc(NC(=O)c2ccnc(C(F)(F)F)c2)cc1-c1cnc(N(C)C)c(C#N)c1` [Example 25, N-(3-(5-cyano-6-(dimethylamino)pyridin-3-yl)-4-methylphenyl)-2-(trifluoromethyl) isonicotinamide], the IC50 in assay [1] stood at 0.9 nM; in assay [2], 0.127 nM.

In the case of `Cc1ncc(NC(=O)c2cnnc(C(F)(F)F)c2)cc1-c1cnc(N2CCOCC2)c(C#N)c1` [Example 142, N-(5′-cyano-2-methyl-6′-morpholino-[3,3′-bipyridin]-5-yl)-6-(trifluoromethyl) pyridazine-4-carboxamide], the IC50 in assay [1] came to 2.79 nM; in assay [2] it was 0.344 nM.

With `Cc1ncc(NC(=O)c2ccnc(C(C)(C)C#N)c2)cc1-c1cnc(NC2CCOCC2)c(C#N)c1` [Example 72, N-(5′-cyano-2-methyl-6′-((tetrahydro-2H-pyran-4-yl)amino)-[3,3′-bipyridin]-5-yl)-2-(2-cyanopropan-2-yl)isonicotinamide], the 50% inhibitory concentration (IC50) worked out at 6.47 nM in assay [1] and 1.53 nM in assay [2].

Take `Cc1ccc(NC(=O)c2ccnc(C(C)(C)O)c2)cc1-c1cnc(C2CCOCC2)c(C#N)c1` [Example 140, N-(3-(5-cyano-6-(tetrahydro-2H-pyran-4-yl)pyridin-3-yl)-4-methylphenyl)-2-(2-hydroxypropan-2-yl)isonicotinamide]: the concentration for half-maximal inhibition (IC50) worked out at 3.61 nM in assay [1] and 0.792 nM in assay [2].

As for `COCCNc1ncc(-c2cc(NC(=O)c3ccnc(C4(C#N)CC4)c3)cnc2C)cc1C#N` [Example 197, N-(5′-cyano-6′-((2-methoxyethyl)amino)-2-methyl-[3,3′-bipyridin]-5-yl)-2-(1-cyanocyclopropyl) isonicotinamide], the values for the IC50 in assay [1] and in assay [2] were 5.23 nM and 0.818 nM, respectively.

Turning to `Cc1ncc(NC(=O)c2ccnc(C(F)(F)F)c2)cc1-c1cnc(S(C)(=O)=O)c(C#N)c1` [Example 45, N-(5′-cyano-2-methyl-6′-(methylsulfonyl)-[3,3′-bipyridin]-5-yl)-2-(trifluoromethyl) isonicotinamide], the half-maximal inhibitory concentration (IC50) in assay [1] came to 5.95 nM; in assay [2] it was 1.13 nM.

Regarding `Cc1ncc(NC(=O)c2cnnc(C(F)(F)F)c2)cc1-c1cnc(N2CC(C)(O)C2)c(C#N)c1` [Example 181, N-(5′-cyano-6′-(3-hydroxy-3-methylazetidin-1-yl)-2-methyl-[3,3′-bypyridin]-5-yl)-6-(trifluoromethyl) pyridazine-4-carboxamide], the 50% inhibitory concentration (IC50) was 112 nM in assay [1] and 16.8 nM in assay [2].

`Cc1ccc(NC(=O)c2ccnc(C(F)(F)F)c2)cc1-c1cnc(NC2CCOCC2)c(C#N)c1` [Example 61, N-(3-(5-cyano-6-((tetrahydro-2H-pyran-4-yl)amino)pyridin-3-yl)-4-methylphenyl)-2-(trifluoromethyl) isonicotinamide]: the half-inhibitory concentration (IC50) in assay [1] was 0.509 nM; in assay [2], 0.194 nM.

With `Cc1ncc(NC(=O)c2ccnc(C(C)(F)F)c2)cc1-c1cnc(N2CC(C)(O)C2)c(C#N)c1` [Example 183, N-(5′-cyano-6′-(3-hydroxy-3-methylazetidin-1-yl)-2-methyl-[3,3′-bipyridin]-5-yl)-2-(1,1-difluoroethyl) isonicotinamide], the half-inhibitory concentration (IC50) in assay [1] was found to be 5.79 nM; in assay [2], 0.824 nM.

With `Cc1ncc(NC(=O)c2ccnc(C(C)(C)C#N)c2)cc1-c1cnc(OC(C)C)c(C#N)c1` [Example 96, N-(5′-cyano-6′-isopropoxy-2-methyl-[3,3′-bipyridin]-5-yl)-2-(2-cyanopropan-2-yl)isonicotinamide], the IC50 in assay [1] was 11.9 nM; in assay [2], 3.53 nM.
